According to patent US7094909B2, “HIV protease inhibitors, compositions containing the same, their pharmaceutical uses and materials for their synthesis” (priority 2001, dated 2006):
Like-named read-outs stand apart in the source and are kept apart here.

Key:
[1] = target: T1, HIV-1 protease (Q7S mutant form) (Human immunodeficiency virus type 1 group M subtype B, UniProt P04585, Q495S); assay: HIV-1 Protease RET assay; assay type: biochemical; details: Ave. Ki (nM), RET assay, Q7S enzyme, Morrison tight binding fit
T1 construct: made in house
Summary of the method: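 Ki values fitted with the Morrison tight-binding equation from steady-state RET cleavage (ex 340, em 490 nm) of 5 μM RE(EDANS)SQNYPIVQK(DABCYL)R. Buffer pH 4.8 acetate, 1M NaCl, 5 mM DTT, 1 mg/ml BSA, 10% DMSO; 2 nM Q7S mutant dimer, 37 °C, 12 min.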

[2] = system: HIV-1 (HIV-1 RF, HIV-1 NL4-3) in CEM-SS / MT-2 cells; assay: Cytopathic effect (CPE) inhibition assay (XTT/MTT dye reduction); assay type: cell-based
Summary of the method: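 Readout is XTT reduction (A450, 4 h) after six days of culturing virus-infected (moi 0.025–0.819) or mock-infected CEM-SS/MT-2 cells, 2×10^4 per well, with half-log compound series. Antiviral EC50 and cytotoxic CC50 are relative to uninfected compound-free cells. Therapeutic index is CC50 divided by EC50.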

[3] = system: HIV-1 NL4-3 or HIV-1 NL4-3(I84V/L90M); assay: Susceptibility assay, p24 ELISA in infected MT-2 cells; assay type: cell-based; details: Human immunodeficiency virus 1, NL43, MT2, read-out: EC50 or IC50 (mM), values without asterisk (EC50)
Protocol: T-cell lines, CEM-SS, and MT-2, and viruses HIV-1 RF and HIV-1 NL4-3 (pNL4-3) were obtained from the National Institutes of Health (AIDS Research and Reference Reagent Program, Bethesda, Md.).
Compounds were tested in phenotypic susceptibility assays at Virologic, Inc., (See Petropoulos C. J., Parkin N. T., Limoli K. L., Lie Y. S., Wrin T., Huang W., Tian H., Smith D., Winslow G. A., Capon D J, Whitcomb J M. 2000, “A novel phenotypic drug susceptibility assay for human immunodeficiency virus type 1,” Antimicrob Agents Chemother 44(4):920–928) or using the assay described here. MT-2 cells were infected with either HIV-1 NL4-3 or HIV-1 NL4-3([…]) and incubated in the presence of serial 0.5 log dilutions of test compounds. Three days later, culture supernatants were collected and virus production, as determined by p24 ELISA, was assayed. Percent inhibition was calculated as p24 concentration in compound-treated samples as compared to infected, compound-free controls. Inhibition of viral replication is determined by measuring reduction in HIV p24 present in the culture supernatant, using a Beckman-Coulter p24HIV-1 Ag EIA kit and following the supplied protocol. Absorbance is read on a MRX microplate reader (Dynex Technologies). The EC50 was calculated as the concentration of compound that effected a decrease in the p24 production by infected, compound-treated cells to 50% of that produced by infected, compound-free cells.

[4] = Human immunodeficiency virus 1, NL43, read-out: Ave CPE EC50
[5] = Human immunodeficiency virus 1, NL43, read-out: Ave CPE EC50 (mM)

Row | SMILES | Ki [1] [nM] | EC50 [2, 4] [µM] | EC50 [3] [µM] | EC50 [2, 5] [µM]
1 | Cc1ccccc1CNC(=O)[C@H]1N(C(=O)[C@@H](O)[C@H](Cc2ccccc2)NC(=O)CC(F)(F)F)CSC1(C)C [Example B19, (R)-3-[(2S,3S)-2-Hydroxy-4-phenyl-3-(3,3,3-trifluoropropionylamino)-butyryl]-5,5-dimethyl-thiazolidine-4-carboxylic acid 2-methyl-benzylamide] | 1.4 | 1.59 | 1.3 | 
2 | Cc1ccccc1CNC(=O)[C@H]1N(C(=O)[C@@H](O)[C@H](Cc2ccccc2)NC(=O)COc2c(Cl)cccc2Cl)CSC1(C)C [Example B77, (R)-3-{(2S,3S)-3-[2-(2,6-Dichloro-phenoxy)-acetylamino]-2-hydroxy-4-phenyl-butyryl}-5,5-dimethyl-thiazolidine-4-carboxylic acid 2-methyl-benzylamide] | < 0.1 | 0.143 | 1.63 | 
3 | Cc1ccccc1C(=O)N[C@@H](Cc1ccccc1)[C@H](O)C(=O)N1CSC(C)(C)[C@H]1C(=O)N[C@@H]1C=CCCC1 [Example B80, (R)-3-{(2S,3S)-2-Hydroxy-4-phenyl-3-[(1-o-tolyl-methanoyl)-amino]-butanoyl}-5,5-dimethyl-thiazolidine-4-carboxylic acid (S)-cyclohex-2-enylamide] | 0.15 | 0.419 | 1.38 | 
4 | Cc1c(O)cccc1C(=O)N[C@@H](Cc1ccccc1)[C@H](O)C(=O)N1CSC2(CCCC2)[C@H]1C(=O)N[C@H]1CCc2ccccc21 [Example B83, (R)-3-((2S,3S)-2-Hydroxy-3-{[1-(3-hydroxy-2-methyl-phenyl)-methanoyl]-amino}-4-phenyl-butanoyl)-1-thia-3-aza-spiro[4.4]nonane-4-carboxylic acid (S)-indan-1-ylamide] | < 0.1 | 0.009 | 0.202 | 
5 | Cc1c(O)cccc1C(=O)N[C@@H](Cc1ccccc1)[C@H](O)C(=O)N1CSC2(CCCCC2)[C@H]1C(=O)N[C@@H]1C=CCCC1 [Example B84, (R)-3-((2S,3S)-2-Hydroxy-3-{[1-(3-hydroxy-2-methyl-phenyl)-methanoyl]-amino}-4-phenyl-butanoyl)-1-thia-3-aza-spiro[4.5]decane-4-carboxylic acid (S)-cyclohex-2-enylamide] | < 0.1 | 0.009 | 0.686 | 
6 | Cc1ccccc1CNC(=O)[C@@H]1CC(F)(F)CN1C(=O)[C@@H](O)[C@H](Cc1ccccc1)NC(=O)c1cccc(O)c1C [Example C1, (S)-4,4-Difluoro-1-[(2S,3S)-2-hydroxy-3-(3-hydroxy-2-methyl-benzoylamino)-4-phenyl-butyryl]-pyrrolidine-2-carboxylic acid 2-methyl-benzylamide] | 0.38 |  | 0.427 | 0.627
7 | Cc1c(O)cccc1C(=O)N[C@@H](Cc1ccccc1)[C@H](O)C(=O)N1CC(F)(F)C[C@H]1C(=O)N[C@@H]1C=CCCC1 [Example C4, (S)-4,4-Difluoro-1-((2S,3S)-2-hydroxy-3-{[1-(3-hydroxy-2-methyl-phenyl)-methanoyl]-amino}-4-phenyl-butanoyl)-pyrrolidine-2-carboxylic acid (S)-cyclohex-2-enylamide] | 0.17 | 0.236 | 1.9 | 
8 | Cc1c(F)cccc1CNC(=O)[C@@H]1CC(F)(F)CN1C(=O)[C@@H](O)[C@H](Cc1ccccc1)NC(=O)c1cccc(O)c1C [Example C5, (S)-4,4-Difluoro-1-((2S,3S)-2-hydroxy-3-{[1-(3-hydroxy-2-methyl-phenyl)-methanoyl]-amino}-4phenyl-butanoyl)-pyrrolidine-2-carboxylic acid 3-fluoro-2-methyl-benzylamide] | 0.6 | 0.669 | 1.61 | 
9 | Cc1ccc(F)cc1CNC(=O)[C@@H]1CC(F)(F)CN1C(=O)[C@@H](O)[C@H](Cc1ccccc1)NC(=O)c1cccc(O)c1C [Example C6, (S)-4,4-Difluoro-1-((2S,3S)-2-hydroxy-3-{[1-(3-hydroxy-2-methyl-phenyl)-methanoyl]-amino}-4-phenyl-butanoyl)-pyrrolidine-2-carboxylic acid 5-fluoro-2-methyl-benzylamide] | 2.4 | 0.744 | 1.94 | 
10 | C/C=C(\C)CNC(=O)[C@@H]1CC(F)(F)CN1C(=O)[C@@H](O)[C@H](Cc1ccccc1)NC(=O)c1cccc(O)c1C [Example C8, (S)-4,4-Difluoro-1-((2S,3S)-2-hydroxy-3-{[1-(3-hydroxy-2-methyl-phenyl)-methanoyl]-amino}-4-phenyl-butanoyl)-pyrrolidine-2-carboxylic acid ((E)-2-methyl-but-2-enyl)-amide] | 1.5 |  | 1.42 | 0.152
11 | Cc1ccccc1CNC(=O)[C@H]1N(C(=O)[C@@H](O)[C@H](Cc2ccccc2)NC(=O)c2cccc(O)c2C)CC(F)(F)C1(C)C [Example C15, (S)-4,4-Difluoro-1-[(2S,3S)-2-hydroxy-3-(3-hydroxy-2-methyl-benzoylamino)-4-phenyl-butyryl]-3,3-dimethyl-pyrrolidine-2-carboxylic acid 2-methyl-benzylamide] | < 0.1 | 0.025 | 0.057 | 
12 | Cc1c(O)cccc1C(=O)N[C@@H](Cc1ccccc1)[C@H](O)C(=O)N1CC(F)(F)C(C)(C)[C@H]1C(=O)N[C@H]1CCc2ccccc21 [Example C16, (S)-4,4-Difluoro-1-[(2S,3S)-2-hydroxy-3-(3-hydroxy-2-methyl-benzoylamino)-4-phenyl-butyryl]-3,3-dimethyl-pyrrolidine-2-carboxylic acid (S)-indan-1-ylamide] | < 0.1 | 0.019 | 0.201 | 
13 | C#CCNC(=O)[C@H]1N(C(=O)[C@@H](O)[C@H](Cc2ccccc2)NC(=O)c2cccc(O)c2C)CC(F)(F)C1(C)C [Example C17, (S)-4,4-Difluoro-1-[(2S,3S)-2-hydroxy-3-(3-hydroxy-2-methyl-benzoylamino)-4-phenyl-butyryl]-3,3-dimethyl-pyrrolidine-2-carboxylic acid prop-2-ynylamide] | < 0.1 | 0.115 | 0.186 | 
14 | Cc1c(O)cccc1C(=O)N[C@@H](Cc1ccccc1)[C@H](O)C(=O)N1CC(F)(F)C(C)(C)[C@H]1C(=O)NCc1ccc(F)cc1Cl [Example C18, (S)-4,4-Difluoro-1-((2S,3S)-2-hydroxy-3-{[1-(3-hydroxy-2-methyl-phenyl)-methanoyl]-amino}-4-phenyl-butanoyl)-3,3-dimethyl-pyrrolidine-2-carboxylic acid 2-chloro-4-fluoro-benzylamide] | < 0.1 | 0.148 | 0.618 | 
15 | CCCNC(=O)[C@H]1N(C(=O)[C@@H](O)[C@H](Cc2ccccc2)NC(=O)c2cccc(O)c2C)CC(F)(F)C1(C)C [Example C19, (S)-4,4-Difluoro-1-((2S,3S)-2-hydroxy-3-{[1-(3-hydroxy-2-methyl-phenyl)-methanoyl]-amino}-4-phenyl-butanoyl)-3,3-dimethyl-pyrrolidine-2-carboxylic acid propylamide] | < 0.1 | 0.055 | 0.084 | 
16 | Cc1c(O)cccc1C(=O)N[C@@H](Cc1ccccc1)[C@H](O)C(=O)N1CC(F)(F)C(C)(C)[C@H]1C(=O)NCC(C)C [Example C21, 4,4-Difluoro-1-[2-hydroxy-3-(3-hydroxy-2-methyl-benzoylamino)-4-phenyl-butyryl]-3,3-dimethyl-pyrrolidine-2-carboxylic acid isobutyl-amide] | < 0.1 | 0.015 | 0.081 | 
17 | Cc1c(O)cccc1C(=O)N[C@@H](Cc1ccccc1)[C@H](O)C(=O)N1CC(F)(F)C(C)(C)[C@H]1C(=O)NCc1cccs1 [Example C22, (S)-4,4-Difluoro-1-[(2S,3S)-2-hydroxy-3-(3-hydroxy-2-methyl-benzoylamino)-4-phenyl-butyryl]-3,3-dimethyl-pyrrolidine-2-carboxylic acid (thiophen-2-ylmethyl)-amide] | < 0.1 | 0.015 | 0.062 | 
